Reference: PMC8271926, “1,3,5-Triazine Nitrogen Mustards with Different Peptide Group as Innovative Candidates for AChE and BACE1 Inhibitors” (Molecules, 2021)
Where two headings read alike, the source gives them in different places.

Key:
[1] = tested on: AChE; conditions: Jameel et al.; read-out: AChE inhibition IC50; cited from earlier work
[2] = biological target: T1, AChE (from electrophorus electricus) (Electrophorus electricus, UniProt O42275); assay: In vitro AChE inhibition, Ellman's colorimetric method; assay type: biochemical
T1 construct: purchased Sigma-Aldrich C3389

[3] = biological target: T2, BACE1 (from equine serum) (Homo sapiens, UniProt P56817); assay: In vitro BACE1 inhibition, FRET assay; assay type: biochemical
T2 construct: purchased Sigma-Aldrich CS0010

[4] = tested on: BACE1; conditions: Yazdani et al.; cited from earlier work
[5] = cell-based assays; cited from earlier work
[6] = tested on: BACE-1; conditions: in vitro; cited from earlier work
[7] = tested on: GSK-3β; conditions: in vitro; cited from earlier work
[8] = tested on: BACE1; conditions: Iraji et al.; cited from earlier work
[9] = mean ± SD of three independent experiments, read-out: BACE1 IC50

T1 sequence (O42275 24-633): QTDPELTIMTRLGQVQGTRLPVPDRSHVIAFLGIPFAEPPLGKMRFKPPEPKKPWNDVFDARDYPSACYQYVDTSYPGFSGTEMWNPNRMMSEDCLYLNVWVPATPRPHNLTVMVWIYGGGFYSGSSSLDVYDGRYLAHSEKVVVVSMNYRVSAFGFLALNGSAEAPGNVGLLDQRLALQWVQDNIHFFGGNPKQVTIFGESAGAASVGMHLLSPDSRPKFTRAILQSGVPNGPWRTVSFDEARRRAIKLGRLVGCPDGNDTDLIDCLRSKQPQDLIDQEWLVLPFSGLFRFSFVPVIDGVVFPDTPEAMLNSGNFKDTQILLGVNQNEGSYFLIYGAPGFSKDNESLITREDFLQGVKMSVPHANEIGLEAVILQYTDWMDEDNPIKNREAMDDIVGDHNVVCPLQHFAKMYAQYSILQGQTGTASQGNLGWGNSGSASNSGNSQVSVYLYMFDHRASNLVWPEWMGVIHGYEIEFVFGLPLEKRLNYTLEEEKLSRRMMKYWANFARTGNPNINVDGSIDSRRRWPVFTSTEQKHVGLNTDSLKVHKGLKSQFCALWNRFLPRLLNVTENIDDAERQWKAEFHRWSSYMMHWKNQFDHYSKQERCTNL
T2 sequence (P56817 46-457 limits assumed): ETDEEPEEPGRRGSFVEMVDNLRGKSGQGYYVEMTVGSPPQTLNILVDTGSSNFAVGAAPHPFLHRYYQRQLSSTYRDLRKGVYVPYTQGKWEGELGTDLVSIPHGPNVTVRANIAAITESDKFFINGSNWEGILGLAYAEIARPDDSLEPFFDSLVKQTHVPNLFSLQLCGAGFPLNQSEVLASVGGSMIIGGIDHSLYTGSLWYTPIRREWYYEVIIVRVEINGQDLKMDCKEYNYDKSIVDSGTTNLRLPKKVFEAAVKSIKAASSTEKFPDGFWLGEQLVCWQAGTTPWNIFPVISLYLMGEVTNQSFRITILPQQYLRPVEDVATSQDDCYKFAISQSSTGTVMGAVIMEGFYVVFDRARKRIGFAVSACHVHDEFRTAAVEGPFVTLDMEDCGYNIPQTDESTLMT

| SMILES | IC50 [2] [µM] | IC50 [3, 9] [µM] | other results |
| --- | --- | --- | --- |
| COc1ccc(Nc2nc(Cl)nc(N3CCN(c4cc(C)nc5ccnn45)CC3)n2)cc1 [D] | – | – | IC50 [1]: 0.092 µM |
| COC(=O)C(C)NC(=O)C(CC(=O)OC(C)(C)C)Nc1nc(OC)nc(N2CCN(CCCl)CC2)n1 (stereo not drawn) [4b, 2-[4-(2-Chloroethyl)Piperazin-1-yl]-4-Methoxy-6-(NH-Asp(OtBu)-Ala-OMe)-1,3,5-Triazine] | 0.065 ± 0.002 | 33.8 ± 3.91 | – |
| O=[N+]([O-])c1ccc(Cn2cc(COc3ccc(/C=N/Nc4nnc(-c5ccccc5)c(-c5ccccc5)n4)cc3)nn2)cc1 [G] | – | – | IC50 [4]: 11.4 ± 2.01 µM |
| COC(=O)C(C)NC(=O)C(CCCNC(=N)N[N+](=O)[O-])Nc1nc(OC)nc(N2CCN(CCCl)CC2)n1 (stereo not drawn) [4f, 2-[4-(2-Chloroethyl)Piperazin-1-yl]-4-Methoxy-6-(NH-Arg(NO2)-Ala-OMe) -1,3,5-Triazine] | 1.44 ± 0.029 | 52 ± 8.55 | – |
| COC(=O)C(C)NC(=O)C(Cc1cn(S(=O)(=O)c2ccc(C)cc2)cn1)Nc1nc(OC)nc(N2CCN(CCCl)CC2)n1 (stereo not drawn) [4h, 2-[4-(2-Chloroethyl)Piperazin-1-yl]-4-Methoxy-6-(NH-His(Ts)-Ala-OMe)-1,3,5-Triazine] | – | – | IC50 ([2]; read-out: AChE IC50, AChE from electric eel, Ellman's method, mean ± SD of three independent experiments): 0.067 ± 0.003 µM; IC50 ([3]; read-out: BACE1 IC50, mean ± SD of three independent experiments): 14.2 ± 3.45 µM |
| COC(=O)C(C)NC(=O)C(Cc1c[nH]c2ccccc12)Nc1nc(OC)nc(N2CCN(CCCl)CC2)n1 (stereo not drawn) [4g, 2-[4-(2-Chloroethyl)Piperazin-1-yl]-4-Methoxy-6-(NH-Trp-Ala-OMe)- 1,3,5- Triazine] | 0.122 ± 0.014 | 28.1 ± 3.69 | – |
| COC(=O)C(C)NC(=O)C(C)(C)Nc1nc(OC)nc(N2CCN(CCCl)CC2)n1 (stereo not drawn) [4e, 2-[4-(2-Chloroethyl)Piperazin-1-yl]-4-Methoxy-6-(NH-Aib-Ala-OMe) -1,3,5 -Triazine] | 0.789 ± 0.031 | 51 ± 7.99 | – |
| COC(=O)C(C)NC(=O)C(Cc1cn(C(=O)OC(C)(C)C)c2ccccc12)Nc1nc(OC)nc(N2CCN(CCCl)CC2)n1 (stereo not drawn) [4c, 2-[4-(2-Chloroethyl)Piperazin-1-yl]-4-Methoxy-6-(NH-Trp(Boc)-Ala-OMe)-1,3,5-Triazine] | 0.114 ± 0.012 | 18.1 ± 2.69 | – |
| COC(=O)C(C)NC(=O)C(CCCCNC(=O)OC(C)(C)C)Nc1nc(OC)nc(N2CCN(CCCl)CC2)n1 (stereo not drawn) [4a, 2-[4-(2-Chloroethyl)Piperazin-1-yl]-4-Methoxy-6-(NH-Lys(Boc)-Ala -OMe)-1,3,5-Triazine] | 0.055 ± 0.001 | 11.1 ± 2.29 | – |
| ClCCN1CCN(c2nc(Nc3ccccc3)nc(N3CCN(CCCl)CC3)n2)CC1 [A] | 0.051 ± 0.001 | 9 ± 0.22 | – |
| Cc1cccc(Nc2nc(Cl)nc(N3CCN(c4cc(C)nc5ccnn45)CC3)n2)c1 [C] | – | – | IC50 [1]: 0.065 µM |
| NC1=NC(c2ccc(F)cc2)NC(=O)N1 (stereo not drawn) [E] | – | – | neuroprotective and neurogenic activities [5]: effective; neurotoxicity [5]: no neurotoxicity; IC50 [6]: 18.03 ± 0.01 µM; IC50 [7]: 14.7 ± 0.78 µM |
| Clc1ccc(Cn2cc(COc3ccc(/C=N/Nc4nnc(-c5ccccc5)c(-c5ccccc5)n4)cc3)nn2)cc1 [F] | – | – | IC50 [4]: 8.55 ± 3.37 µM |
| COC(=O)C(C)NC(=O)C(COCc1ccccc1)Nc1nc(OC)nc(N2CCN(CCCl)CC2)n1 (stereo not drawn) [4d, 2-[4-(2-Chloroethyl)Piperazin-1-yl]-4-Methoxy-6-(NH-Ser (Bn)-Ala -OMe) -1,3,5-Triazine] | 0.387 ± 0.054 | 58.1 ± 9.69 | – |
| Oc1ccc(/C=N/Nc2nnc(-c3cccs3)c(-c3cccs3)n2)c(O)c1 [H] | – | – | IC50 [8]: 0.91 µM |
